Reference: patent US8258099B2, “Pin1-modulating compounds and methods of use thereof” (Max-Planck-Gesellschaft zur Foerderung der Wissenschaften …, priority 2004, dated 2012)
Square brackets hold non-standard residues; d marks the D form. Peptide text beside a SMILES is read from it. d(pT) = C[C@H](OP(=O)(O)O)[C@@H](N)C(=O)O; 2Nal = N[C@@H](Cc1ccc2ccccc2c1)C(=O)O; Pip = O=C(O)[C@@H]1CCCCN1

Experiments:
full length hPin1 = target: T1, full length hPin1 (Homo sapiens, UniProt Q13526); test: Isothermal titration calorimetry (ITC), full length hPin1; type: binding
T1 construct: The protease free assay ensures reliable measurement of IC50 values for the full-length hPin1
T1 sequence (Q13526 whole entry): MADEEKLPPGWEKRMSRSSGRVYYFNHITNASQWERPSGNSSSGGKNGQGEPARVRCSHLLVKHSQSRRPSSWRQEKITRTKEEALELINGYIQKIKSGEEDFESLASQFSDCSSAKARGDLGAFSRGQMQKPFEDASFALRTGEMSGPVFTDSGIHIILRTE
Protocol: FIGS. 3A-B depicts a thermodynamic characterization of the binding of peptide 17 towards full length hPin1 by isothermal titration calorimetry (ITC). FIG. 3A depicts peaks that represent the heat evolved after injection of peptide 17 into the sample cell containing hPin1. After the 11th injection only the heat of dilution is observed. The experiment was performed at 10 C. FIG. 3B depicts integrals of the corresponding peaks of panel A are plotted against the molar ratio of peptide 17 and hPin1. The solid line represents a nonlinear least squares fit analysis of the binding heat assuming a single binding site model with the following parameters: ΔHbind=−4561±36 cal/mol, TΔSbind=5433±529 cal/mol, n=0.96 (binding stoichiometry) and KAss=5.18×10^7±7×10^6 M^−1 (association constant).
(§1) Calorimetric experiments were performed using a VP-ITC titration calorimeter (MicroCal, Inc, Northampton, Mass.) at 10° C. All solutions were degassed under vacuum prior to use. Solutions of hPin1 and hPin1 PPIase domain were dialyzed against 10 mM Hepes (pH 7.8). The protein concentration in the sample cell was adjusted to 6.5 μM using the same batch of buffer. Protein concentrations were determined as described above. The volume of the protein solution in the sample cell was 1.4 ml. The injection syringe was filled with 300 μl solution of peptide 17 (see table III) (250 μM in the same batch of buffer as used for dialyses). Each titration experiment consisted of a single 1 μl injection followed by 16 identical injections of 5 μl solution of peptide 17.
In principle, minimally four forms of a competing substrate in the presence of hPin1 have to be considered, the free cis and trans isomers together with two Michaelis complexes. This four-site exchange model of PPIase catalysis involves understanding predisposing factors of the stability of hPin1/substrate complexes, expected to be weaker, than the stability for those formed by phosphopeptides lacking substrate properties. The consequent increase in inhibitory potency could be realized by a transition state destabilizing substitution in peptide 15. Previous studies have shown that following C^α-stereocenter inversion of a substrate at the P1 position the parvulins fully retain substrate-like active site affinity for the derivatives while catalytic rate acceleration is abolished (Schiene et al., 1998). […] To optimize solute diffusion after mechanical injection of the Pin1 binding peptides into the viscous Xenopus laevis egg cytosol, the molecular weight of 1376.5 for peptide 16 was reduced to 823.8 for peptide 17. Following chain truncation peptide 17 maintained high affinity for Pin1 (Table III). To ensure domain selectivity, the binding of peptide 17 towards hPin1 was characterized using the isothermal titration calorimetry (ITC). […] The dissociation constant determined with ITC is in the same range as obtained in the protease-free PPIase assay (Table III).

hPin1 PPIase domain = target: T2, hPin1 PPIase domain (Homo sapiens, UniProt Q13526); test: Isothermal titration calorimetry (ITC), isolated PPIase domain; type: binding
T2 construct: The hPin1 PPIase domain comprising of amino acid residues Gly45-Glu163 was amplified by PCR; made in house; host or cells: E. coli BL21(DE3) (pET28a)
T2 sequence (Q13526 45-163): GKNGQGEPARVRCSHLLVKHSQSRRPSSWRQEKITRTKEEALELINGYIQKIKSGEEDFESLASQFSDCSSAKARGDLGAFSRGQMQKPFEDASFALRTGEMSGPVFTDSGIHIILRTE
Protocol: as §1
(§2) The stability of peptides 15 and 17 in cytoplasmic extracts from HeLa cells was investigated using MALDI-TOF mass spectrometry and capillary electrophoresis, respectively. In the cytosolic incubation mixture, streptavidin sepharose beads served to isolate peptide 15 fragments after prolonged incubation. […] Therefore, phosphopeptides are useless for evaluating Pin1 functions in vivo unless dephosphorylation can be avoided.

[1] = Stability against cellular phosphatases and proteases in HeLa cell lysate; type: in vitro ADME
Protocol: FIG. 4 depicts the stability of peptide 17 against cellular phosphatases and proteases. Peptide 17 was incubated for 3 hours in HeLa cell lysate in the absence of phosphatase and protease inhibitors. The mixture was then analyzed by capillary electrophoresis (short dashed line). As controls, the untreated peptide 17 (solid line) and its nonphosphorylated derivative (dotted line) were used. The temperature of the capillary thermostating system was kept at 16° C. Separation buffer was 50 mM sodium phosphate, pH 7.0. Signals were detected at 220 nm.
Peptide 17 was incubated with HeLa cell lysate for 3 h and analyzed with capillary electrophoresis using UV detection at 220 nm on a P/ACE MDQ (Beckman Coulter, Palo Alto, Calif.) system. Fused-silica capillaries (Polymicro Technologies) of 40 cm length at an operation voltage of 20 kV were used. As references, untreated peptide 17 and its nonphosphorylated derivative were used. The samples were hydrodynamically injected with 3.45 kPa for 10 s. 50 mM sodium phosphate buffer (pH 7.0) was used as separation buffer. The system temperature was kept at 16° C.
as §2

hCyp18 = hCyp18 (Homo sapiens, UniProt P62937); test: Protease coupled PPIase assay, hCyp18; type: biochemical
Sequence of hCyp18 (P62937 whole entry): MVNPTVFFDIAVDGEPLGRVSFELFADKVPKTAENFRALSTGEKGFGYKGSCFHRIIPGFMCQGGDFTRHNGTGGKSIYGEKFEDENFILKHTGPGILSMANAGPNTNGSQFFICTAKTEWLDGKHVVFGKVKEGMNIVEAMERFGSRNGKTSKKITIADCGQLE
Protocol: PPIase activities were monitored on a Hewlett-Packard 8452A diode array spectrophotometer according to Fischer et al., 1984 and Zhang et al., 2002. The hPar14 PPIase activity was measured with Suc-Ala-Arg-Pro-Phe-NH-Np (SEQ ID NO: 3) (final concentration 75 μM) as substrate and α-chymotrypsin (final concentration 60 μM) as isomer specific protease. PPIase activity of hCyp 18 and FKBP12 were measured using Suc-Ala-Ala-Pro-Phe-NH-Np (SEQ ID NO: 7) as substrate (final concentration 16 μM) and α-chymotrypsin (final concentration 60 μM) as isomer specific protease. PPIase activity of hPin1 was measured with Ac-Ala-Ala-Ser(PO3H2)-Pro-Arg-NH-Np (SEQ ID NO: 4) (final concentration 10 μM) as substrate and trypsin (final concentration 60 μM) as isomer specific protease. […] Measurements were monitored at 390 nm.
Data analysis was performed by single-exponential nonlinear regression using the SigmaPlot Scientific Graphing System Version 5.00 (Jandel Corp.). […] The rate constant k0 was determined in the absence of Pin1. The first order rate constants kenz was calculated from the equation kenz=kobs−k0. IC50 and Ki values were determined by fitting the first order rate constants kenz against the concentration of the inhibitory peptide by nonlinear regression according to Schutkowski et al., 1995 or a model for tight binding inhibitors (Morrison, 1969).

[2] = ITC, 10° C., single binding site model

SMILES: CC(=O)N[C@@H](Cc1ccccc1)C(=O)N[C@@H](C(=O)N1CCCC[C@H]1C(=O)N[C@@H](Cc1ccc2ccccc2c1)C(=O)N[C@@H](CCC(N)=O)C(N)=O)[C@H](C)OP(=O)(O)O [Peptide 17, Ac-Phe-D-Thr(PO3H2)-Pip-Nal-Gln-NH2] (Ac-F[d(pT)][Pip][2Nal]Q-NH2)
- Kd (full length hPin1): 19.3 ± 2.6 nM
- KAss (association constant) (full length hPin1; [2]): 5.18e+07 ± 7e+06 M⁻¹
- binding enthalpy ΔHbind (full length hPin1; [2]): -4.561 ± 0.036 kcal/mol
- binding entropy TΔSbind (full length hPin1; [2]): 5.433 ± 0.529 kcal/mol
- n (binding stoichiometry) (full length hPin1; [2]): 0.96
- fold tighter binding of D isomer compared to L isomer (full length hPin1; Pin1): 30 fold
- thermodynamic constants, isolated PPIase domain versus full-length hPin1 (hPin1 PPIase domain): same thermodynamic constants
- stability against HeLa cell lysate ([1]; 3 hours of incubation, no phosphatase and protease inhibitors, capillary electrophoresis): complete stability
- stability in cytosol ([1]; discussion statement (FIG. 4)): sufficiently stable
- inhibition of Cyp18 (hCyp18): no inhibition
